Experimental data: patent US10730857B2, “Benzocyanine compounds” (Pierce Biotechnology, Inc., priority 2011, dated 2020)
Entries after “also recorded” stand apart in the source; their conditions may differ.

Columns and labels:
[1] = test system: rabbit IgG immunoglobulin; experiment: Plate functional assay of dye-GAR conjugates; format: binding; conditions: FIG. 14 summary Raw Fluorescence Intensity
Method: Performance of the dye-GAM conjugates, dye-GAR conjugates, and dye-SA conjugates was evaluated in a functional assay. Wells of a 96 white opaque plate or black clear-bottom plate were coated with target proteins mouse IgG immunoglobulin, rabbit IgG immunoglobulin, or biotinylated bovine serum albumin (BBSA). One hundred μl mouse or rabbit IgG, or BBSA at a concentration of 10 μg/ml was applied to the corresponding wells in columns 1 and 2. The target proteins were serially diluted 1:1 from the wells in columns 2 to 11 using 100 μl PBS. One hundred μl of the samples from the wells in column 11 were discarded. One hundred μl PBS was added to the wells in column 12. The plates were incubated overnight at 4° C. and then blocked 2×200 μl with Thermo Scientific SuperBlock® Blocking Buffer. The coated plates were washed 2×200 μl with PBS-Tween and 1×200 μl with PBS. Based on the calculated concentrations, conjugates were diluted 1:250 in PBS, added to the corresponding plates (100 μl/well) and then incubated for one hour in the dark. The plates were washed with 2×200 μl with PBS-Tween and 1×200 μl with PBS and filled with PBS buffer (100 μl/well) prior to scanning the white opaque plates on Tecan Safire using 679 nmexcitation/702 nmemission or scanning the black clear-bottom plates on LiCor Odyssey at 700 channel, to detect fluorescence intensity.

[2] = In vivo imaging with dye-labeled anti-CEA antibody; set-up: species or system nu/nu mice; conditions: dye conjugated to mouse anti-CEA antibody; i.v.; predicted results
Method: The inventive compounds are used for in vivo imaging as described in J. Gastrointest Surg (2008) 12:1938-1950. Briefly, human pancreatic cell lines are maintained in media supplemented with penicillin/streptomycin at 37° C. with 5% CO2. Mouse anti-CEA antibody and Control Mouse IgG (in PBS with 0.20% sodium azide) are conjugated to V08-15173. The dye is reconstituted at 10 mg/ml in DMF and then added to the antibody at a 10 molar excess. The reaction is carried out for one hour at room temperature. The samples are then dialyzed against 3×2 L of PBS. The cell lines are plated in 96-well plates at 5×10^4 cells per well. After 48 hours culture in appropriate media, the cells are incubated with 1 μg of V08-15173 labeled anti-CEA antibody or V08-15173-labeled control mouse IgG for four hours at 37° C. The cells are then washed three times with PBS and then imaged with an inverted Nikon De-485 microscope and Spot camera RD.
Surgical procedures and intravital imaging are performed with the animals anesthesized by intramuscular injection of 0.02 ml of 50% ketamine, 38% xylazine and 12 acepromazine maleate. Human pancreatic and colorectal cancer cell lines are harvested by trypsinization and washed twice with serum free medium […]. Cells (1×10^6 in 100 μl of serum-free media) are injected subcutaneously within 30 minutes of harvesting over the right flank in female nu/nu mice between 4-6 weeks of age. Subcutaneous tumors are allowed to grow for 7-14 days until they reached diameter of 1-2 mm prior to the delivery of conjugated antibody. For ASPC-1 implants, the cells are harvested by trypsinization and washed 3× in serum-free media. […]. The cells are resuspended in serum-free media at 5×10^6/ml. A volume of 200 μl of the cell suspension is then injected directly into the peritoneal cavity within 30 minutes of harvesting.
For antibody delivery, one to two weeks after subcutaneous, orthotopic, or intraperitoneal tumor implantation, animals are given intravenous (i.v.) injection of either conjugated anti-CEA or conjugated control IgG antibody diluted in PBS to a final volume of 100 μl. All i.v. injections are done via the tail vein. For the dose-response experiment, the antibody dose is 75 μg. For the in vivo time course, the animals are anesthesized and imaged at 30 min, 1, 2, 6, 24 hours and 8 and 15 days after systemic antibody delivery.
The inventive compounds are used for in vivo imaging as described in J. Gastrointest Surg (2008) 12:1938-1950. Briefly, human pancreatic cell lines are maintained in media supplemented with penicillin/streptomycin at 37° C. with 5% CO2. Mouse anti-CEA antibody and Control Mouse IgG (in PBS with 0.20% sodium azide) are conjugated to 779 Compound 1. […]

[3] = Absorbance/emission spectral properties and fluorescence intensity of the dyes; format: physicochemical; conditions: second property table of Example 6; NHS ester forms
Method: Emission/excitation profiles for inventive and commercial compounds was determined by reconstituting the compounds in DMF at 10 mg/ml and then diluting in PBS buffer pH 7.2 to 10 μg/ml.

lamin A in U20S cells = experiment: Immunofluorescence detection of lamin A in U20S cells (FIG. 20A-C and repeat); format: cell-based; conditions: for S/B 2.5 X: 2.5 X molar excess
Method: In the indicated experiments, the inventive compounds and commercial dye were evaluated for immunofluorescence in a cell based assay using the following protocol. Frozen U20S cell plates which were stored at −80° C. were thawed for 45 minutes at 50° C. Storage buffer (PBS) was removed and the cells were permeabilized for 15 minutes with 0.1% Triton-X100 in 1×PBS buffer (100 μl/well). The cell plate was blocked for 60 minutes in 2% BSA/PBS-0.1% Triton-X100. Primary antibody, either rat anti-Grp94 (5 μg/ml), mouse anti-lamin A (10 μg/ml), or rabbit anti-lamin B1 (10 μg/ml), diluted in 2% BSA/PBS-0.1% Triton-X100 was added to the plate and incubated for 1 hour at room temperature. Control wells contained only 2% BSA/PBS-0.1% Triton-X100 blocker. After incubation, the antibody solution was removed from the plate and the plate was washed three times with 100 μl/well of PBS-0.5% Tween-20 and one time with 100 μl/well PBS. GARat, GAM, or GAR secondary antibodies labeled with various molar excess of the inventive or commercial compound were diluted to 4 μg/ml in PBS and incubated for 1 hour at room temperature. The plates were washed three times with 100 μl/well of PBST and once with 100 μl/well PBS, and Hoechst (diluted to 0.1 μg/ml in PBS) was added to each well (100 μl/well). The plates were scanned on ArrayScan Plate Reader or ToxInsight Instrument.

COCCOCCOCCOCC[N+]1=C(/C=C/C=C/C=C2/N(CCOCCOCCOCCOCCC(=O)ON3C(=O)CCC3=O)c3ccc4c(S(=O)(=O)[O-])cc(S(=O)(=O)O)cc4c3C2(C)CCOCCOCCOCCOC)C(C)(CCOCCOCCOCCOC)c2c1ccc1c(S(=O)(=O)O)cc(S(=O)(=O)O)cc21 (stereo not shown) [Compound V08-15173]
quenching at 1000 ng/well at 25× (in words) [1]: no apparent quenching
Ex vivo analysis of the vital organs [2]: presence of dye predominantly in the liver with some signal detected in the spleen intestines and lungs
post-experiment surgical exposure: accumulation of dye [2]: accumulation of dye in the liver, bladder, and a region of inflammation in the subcutaneous tissue
Em [3]: 706 nm
Ex [3]: 684 nm
S/B 2.5 X (lamin A in U20S cells; GAM conjugate): 2.9
S/B 5.0 X (lamin A in U20S cells; GAM conjugate, 5.0 X molar excess): 4.9
S/B 7.5 X (lamin A in U20S cells; GAM conjugate, 7.5 X molar excess): 6.0
S/B 10 X (lamin A in U20S cells; GAM conjugate, 10 X molar excess): 4.9
S/B 15 X (lamin A in U20S cells; GAM conjugate, 15 X molar excess): 4.6
non-specific binding / specificity (in words) (lamin A in U20S cells; GAM conjugates, FIG. 20A-C): a minimal amount of non-specific binding; also recorded: little non-specific binding
Mean Total Intensity, Negative control, 7.5 X (lamin A in U20S cells; no primary antibody, 7.5 X molar excess): 7100
S/B 2.5 X (lamin A in U20S cells; repeat experiment): 9.8
